# Data from ChEMBL document CHEMBL1201862, “PubChem BioAssay data set” (2004).
#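 A five-concentration, 48-hour dose response in 96-well plates underlies each endpoint, interpolated linearly between surrounding concentrations. GI50 is the concentration that inhibits growth by half.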 Activity calls are given as the source filed them. Cut-off read from the data, not from the text of the source: active = GI50 up to about 1.1 µM and inactive = higher.
# Assays:
# Test in all cases: NCI tumour cell line growth inhibition, 48 h
# UACC-257 = test system: UACC-257
# OVCAR-8 = test system: OVCAR-8
# LOX IMVI = test system: LOX IMVI
# MCF7 = test system: MCF7
# DU-145 = test system: DU-145
# RXF 393 = test system: RXF 393
# NCI-H23 = test system: NCI-H23
# PC-3 = test system: PC-3
# MOLT-4 = test system: MOLT-4
# OVCAR-4 = test system: OVCAR-4
# HL-60 = test system: HL-60
# HOP-62 = test system: HOP-62
# T47D = test system: T47D
# SK-MEL-2 = test system: SK-MEL-2
# ACHN = test system: ACHN
# NCI-H226 = test system: NCI-H226
# 786-0 = test system: 786-0
# UACC-62 = test system: UACC-62
# SK-MEL-5 = test system: SK-MEL-5
# SK-OV-3 = test system: SK-OV-3
SMILES,GI50 (UACC-257),GI50 (OVCAR-8),GI50 (LOX IMVI),GI50 (MCF7),GI50 (DU-145),GI50 (RXF 393),GI50 (NCI-H23),GI50 (PC-3),GI50 (MOLT-4),GI50 (OVCAR-4),GI50 (HL-60),GI50 (HOP-62),GI50 (T47D),GI50 (SK-MEL-2),GI50 (ACHN),GI50 (NCI-H226),GI50 (786-0),GI50 (UACC-62),GI50 (SK-MEL-5),GI50 (SK-OV-3)
C=CCO/N=C/c1cc(/N=C(/S)c2ccoc2C)ccc1Cl,14.9 µM (inactive),13.5 µM (inactive),14.6 µM (inactive),9.66 µM (inactive),14 µM (inactive),21.3 µM (inactive),10 µM (inactive),11.4 µM (inactive),5.71 µM (inactive),5.18 µM (inactive),20.6 µM (inactive),14.4 µM (inactive),3.65 µM (inactive),13.6 µM (inactive),5.71 µM (inactive),15.9 µM (inactive),22.6 µM (inactive),14.4 µM (inactive),11.4 µM (inactive),18 µM (inactive)
O=C1N/N=C\Nc2ccc(cc2)S(=O)(=O)c2ccc(cc2)/N=C\NNC1=O,> 100 µM (inactive),> 100 µM (inactive),> 100 µM (inactive),> 100 µM (inactive),> 100 µM (inactive),> 100 µM (inactive),> 100 µM (inactive),> 100 µM (inactive),> 100 µM (inactive),> 100 µM (inactive),10.1 µM (inactive),> 100 µM (inactive),> 100 µM (inactive),> 100 µM (inactive),> 100 µM (inactive),> 100 µM (inactive),> 100 µM (inactive),> 100 µM (inactive),> 100 µM (inactive),> 100 µM (inactive)
COc1cccc(-c2cccc(SC)n2)n1,21 µM (inactive),35.6 µM (inactive),33.1 µM (inactive),31.3 µM (inactive),34.4 µM (inactive),18.7 µM (inactive),23.8 µM (inactive),38.6 µM (inactive),21.5 µM (inactive),36.2 µM (inactive),12.1 µM (inactive),27.9 µM (inactive),18.2 µM (inactive),36.3 µM (inactive),36.8 µM (inactive),15.8 µM (inactive),28.8 µM (inactive),36.2 µM (inactive),20.5 µM (inactive),56.5 µM (inactive)
Cc1cc(O)ccc1C1(c2ccc(F)cc2)OC(=O)c2ccccc21 (centres undefined),12.6 µM (inactive),0.413 µM (active),2.31 µM (inactive),1.34 µM (inactive),4.61 µM (inactive),1.24 µM (inactive),0.787 µM (active),2.24 µM (inactive),15.5 µM (inactive),0.289 µM (active),34 µM (inactive),5.65 µM (inactive),0.318 µM (active),3.93 µM (inactive),4.17 µM (inactive),2.38 µM (inactive),8.47 µM (inactive),3.39 µM (inactive),11.3 µM (inactive),3.65 µM (inactive)
CC1(C)NC(C(=O)c2ccccc2)=[N+]([O-])C1(O)c1ccccc1 (centres undefined),54.5 µM (inactive),> 100 µM (inactive),> 100 µM (inactive),> 100 µM (inactive),> 100 µM (inactive),> 100 µM (inactive),> 100 µM (inactive),> 100 µM (inactive),> 100 µM (inactive),> 100 µM (inactive),> 100 µM (inactive),> 100 µM (inactive),> 100 µM (inactive),> 100 µM (inactive),> 100 µM (inactive),> 100 µM (inactive),> 100 µM (inactive),> 100 µM (inactive),93.3 µM (inactive),> 100 µM (inactive)
CN1c2ccc(O)c(O)c2-c2cc(O)cc3c2C1CCC3 (centres undefined),19.1 µM (inactive),19.1 µM (inactive),11.2 µM (inactive),14.2 µM (inactive),16 µM (inactive),7.23 µM (inactive),22.9 µM (inactive),19.2 µM (inactive),7.4 µM (inactive),13.4 µM (inactive),14.6 µM (inactive),14.1 µM (inactive),15.9 µM (inactive),24 µM (inactive),16.7 µM (inactive),27.9 µM (inactive),15.2 µM (inactive),16.3 µM (inactive),15.7 µM (inactive),51.9 µM (inactive)
C=C1C(=O)O[C@@H]2O[C@@]3(C)CC[C@H]4[C@H](C)CC[C@@H]1[C@@]24O3 [DEOXYARTEMISITENE],18.9 µM (inactive),–,16.1 µM (inactive),5.52 µM (inactive),12.9 µM (inactive),14.4 µM (inactive),15.2 µM (inactive),19.5 µM (inactive),9.08 µM (inactive),15.8 µM (inactive),2.63 µM (inactive),49.5 µM (inactive),13.6 µM (inactive),18.2 µM (inactive),11.3 µM (inactive),40 µM (inactive),13.6 µM (inactive),13 µM (inactive),19.1 µM (inactive),36.1 µM (inactive)
O=S(=O)(O)c1ccc2cc(/N=N/c3c(O)ccc4ccccc34)ccc2c1,> 100 µM (inactive),> 100 µM (inactive),–,> 100 µM (inactive),> 100 µM (inactive),> 100 µM (inactive),> 100 µM (inactive),> 100 µM (inactive),> 100 µM (inactive),> 100 µM (inactive),> 100 µM (inactive),> 100 µM (inactive),> 100 µM (inactive),> 100 µM (inactive),> 100 µM (inactive),> 100 µM (inactive),> 100 µM (inactive),> 100 µM (inactive),> 100 µM (inactive),> 100 µM (inactive)
COC(=O)[C@@]12CC[C@]1(C(=O)OC)C1C(C)=CC(=O)O[C@@]12C (some centres undefined),> 100 µM (inactive),> 100 µM (inactive),> 100 µM (inactive),> 100 µM (inactive),> 100 µM (inactive),> 100 µM (inactive),> 100 µM (inactive),> 100 µM (inactive),> 100 µM (inactive),> 100 µM (inactive),> 100 µM (inactive),> 100 µM (inactive),> 100 µM (inactive),–,> 100 µM (inactive),> 100 µM (inactive),> 100 µM (inactive),> 100 µM (inactive),> 100 µM (inactive),> 100 µM (inactive)
Cc1c(C)c(C)c(-n2c(=O)n(C)c(=O)n2-n2c(=O)n(C)c(=O)n2-c2c(C)c(C)c(C)c(C)c2C)c(C)c1C,> 100 µM (inactive),> 100 µM (inactive),92.5 µM (inactive),> 100 µM (inactive),> 100 µM (inactive),> 100 µM (inactive),–,> 100 µM (inactive),40 µM (inactive),> 100 µM (inactive),12.1 µM (inactive),–,> 100 µM (inactive),> 100 µM (inactive),–,37.8 µM (inactive),> 100 µM (inactive),> 100 µM (inactive),> 100 µM (inactive),> 100 µM (inactive)
